Measured values reported in US8802597B2, “Herbicidal pyrimidines” (E I du Pont de Nemours and Company, priority 2003, dated 2014).

Tests used:
Assay type in all cases: in vivo
[1] = test system: junglerice (Echinochloa colona); experiment: Test E flooded paddy water application; conditions: Flood, 21 days, scale 0 to 100 (0 no effect, 100 complete control)
Summary of the method: (§1)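 Weeds sown in sterilized Tama silt loam (2.6% organic matter), greenhouse 29.5/26.7° C, 16-h photoperiod; at 2.0–2.5-leaf stage pots flooded to 3 cm and compound added to paddy water. Visual rating vs untreated controls after 21 days, 0 (no effect) to 100 (complete control).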

[2] = test system: water seeded rice seedlings (Oryza sativa cv. ‘Japonica-M202’); experiment: Test E flooded paddy water application; conditions: Flood, 21 days, scale 0 to 100 (0 no effect, 100 complete control)
Summary of the method: as §1

[3] = test system: purple redstem (Ammannia coccinea); experiment: Test E flooded paddy water application; conditions: Flood, 21 days, scale 0 to 100 (0 no effect, 100 complete control)
Summary of the method: as §1

[4] = test system: late watergrass (Echinochloa oryzicola); experiment: Test E flooded paddy water application; conditions: Flood, 21 days, scale 0 to 100 (0 no effect, 100 complete control)
Summary of the method: as §1

[5] = test system: transplanted rice seedlings (Oryza sativa cv. ‘Japonica-M202’); experiment: Test E flooded paddy water application; conditions: Flood, 21 days, scale 0 to 100 (0 no effect, 100 complete control)
Summary of the method: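 Response scored visually on a 0–100 scale (100 = complete control) at 21 days against untreated pots. Treatment was into paddy water 3 cm deep over silt loam, with plants at the 2.0–2.5-leaf stage, grown under 16-h light at 29.5/26.7 °C day/night.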

[6] = test system: ducksalad (Heteranthera limosa); experiment: Test E flooded paddy water application; conditions: Flood, 21 days, scale 0 to 100 (0 no effect, 100 complete control)
Summary of the method: as §1

[7] = test system: bearded (brdd.) sprangletop (Leptochloa fusca ssp. fascicularis); experiment: Test E flooded paddy water application; conditions: Flood, 21 days, scale 0 to 100 (0 no effect, 100 complete control)
Summary of the method: as §1

[8] = test system: smallflower umbrella sedge (Cyperus difformis); experiment: Test E flooded paddy water application; conditions: Flood, 21 days, scale 0 to 100 (0 no effect, 100 complete control)
Summary of the method: as §1

[9] = test system: rice flatsedge (Cyperus iria); experiment: Test E flooded paddy water application; conditions: Flood, 21 days, scale 0 to 100 (0 no effect, 100 complete control)
Summary of the method: as §1

[10] = test system: early watergrass (Echinochloa oryzoides); experiment: Test E flooded paddy water application; conditions: Flood, 21 days, scale 0 to 100 (0 no effect, 100 complete control)
Summary of the method: as §1

[11] = test system: barnyardgrass (Echinochloa crus-galli); experiment: Test E flooded paddy water application; conditions: Flood, 21 days, scale 0 to 100 (0 no effect, 100 complete control)
Summary of the method: as §1

[12] = test system: morningglory (Ipomoea spp.); experiment: Test A pre/postemergence
Summary of the method: (§2)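 Visual injury scored 0–100 (0 = no effect, 100 = complete control) against untreated controls after about ten days in the greenhouse. Compounds, formulated in non-phytotoxic solvent plus surfactant, were applied preemergence as a directed soil spray and postemergence at the 1- to 2-leaf stage (2–10 cm).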

[13] = test system: crabgrass (Digitaria sanguinalis); experiment: Test A pre/postemergence
Summary of the method: as §2

[14] = test system: giant foxtail (Setaria faberi); experiment: Test A pre/postemergence
Summary of the method: as §2

[15] = test system: velvetleaf (Abutilon theophrasti); experiment: Test A pre/postemergence
Summary of the method: as §2

[16] = test system: redroot pigweed (Amaranthus retroflexus); experiment: Test A pre/postemergence
Summary of the method: as §2

[17] = test system: barnyardgrass (Echinochloa crus-galli); experiment: Test A pre/postemergence
Summary of the method: as §2

[18] = Postemergence, 125 g ai/ha, 0 to 100 scale (0 no effect, 100 complete control)
[19] = Postemergence, 500 g ai/ha, 0 to 100 scale (0 no effect, 100 complete control)
[20] = Preemergence, 125 g ai/ha, 0 to 100 scale where 0 is no effect and 100 is complete control, approximately ten days
[21] = Preemergence, 500 g ai/ha, 0 to 100 scale where 0 is no effect and 100 is complete control, approximately ten days

CCOC(=O)c1nc(-c2ccc(OC)cc2)nc(N)c1Cl [Compound 98]
45: Plant response rating, Velvetleaf [15, 19]
20: Plant response rating, Barnyardgrass [17, 19]
100: Ducksalad plant response rating ([6]; 32 g ai/ha) | Ducksalad plant response rating ([6]; 64 g ai/ha) | Ducksalad plant response rating ([6]; 125 g ai/ha) | Ducksalad plant response rating ([6]; 250 g ai/ha) | Flatsedge, Rice plant response rating ([9]; 64 g ai/ha) | Flatsedge, Rice plant response rating ([9]; 125 g ai/ha) | Flatsedge, Rice plant response rating ([9]; 250 g ai/ha)
40: Redstem plant response rating ([3]; 125 g ai/ha) | Redstem plant response rating ([3]; 250 g ai/ha)
5: Plant response rating, Velvetleaf [15, 21] | Plant response rating, Pigweed [16, 18]
0: Junglerice plant response rating ([1]; 32 g ai/ha) | Junglerice plant response rating ([1]; 64 g ai/ha) | Junglerice plant response rating ([1]; 125 g ai/ha) | Junglerice plant response rating ([1]; 250 g ai/ha) | Plant response rating, Junglerice ([1]; 16 g ai/ha) | Rice, Water Seeded plant response rating ([2]; 32 g ai/ha) | Rice, Water Seeded plant response rating ([2]; 64 g ai/ha) | Rice, Water Seeded plant response rating ([2]; 125 g ai/ha) | Rice, Water Seeded plant response rating ([2]; 250 g ai/ha) | Plant response rating, Rice, Water Seeded ([2]; 16 g ai/ha) | Redstem plant response rating ([3]; 32 g ai/ha) | Redstem plant response rating ([3]; 64 g ai/ha) | Plant response rating, Redstem ([3]; 16 g ai/ha) | Watergrass, Late plant response rating ([4]; 32 g ai/ha) | Watergrass, Late plant response rating ([4]; 64 g ai/ha) | Watergrass, Late plant response rating ([4]; 125 g ai/ha) | Watergrass, Late plant response rating ([4]; 250 g ai/ha) | Plant response rating, Watergrass, Late ([4]; 16 g ai/ha) | Rice, Transplanted plant response rating ([5]; 32 g ai/ha) | Rice, Transplanted plant response rating ([5]; 64 g ai/ha) | Rice, Transplanted plant response rating ([5]; 125 g ai/ha) | Rice, Transplanted plant response rating ([5]; 250 g ai/ha) | Plant response rating, Rice, Transplanted ([5]; 16 g ai/ha) | Plant response rating, Ducksalad ([6]; 16 g ai/ha) | Sprangletop, Brdd. plant response rating ([7]; 32 g ai/ha) | Sprangletop, Brdd. plant response rating ([7]; 64 g ai/ha) | Sprangletop, Brdd. plant response rating ([7]; 125 g ai/ha) | Sprangletop, Brdd. plant response rating ([7]; 250 g ai/ha) | Plant response rating, Sprangletop, Brdd. ([7]; 16 g ai/ha) | Watergrass, Early plant response rating ([10]; 32 g ai/ha) | Watergrass, Early plant response rating ([10]; 64 g ai/ha) | Watergrass, Early plant response rating ([10]; 125 g ai/ha) | Watergrass, Early plant response rating ([10]; 250 g ai/ha) | Plant response rating, Watergrass, Early ([10]; 16 g ai/ha) | Barnyardgrass plant response rating ([11]; 32 g ai/ha) | Barnyardgrass plant response rating ([11]; 64 g ai/ha) | Barnyardgrass plant response rating ([11]; 125 g ai/ha) | Barnyardgrass plant response rating ([11]; 250 g ai/ha) | Plant response rating, Barnyardgrass ([11]; 16 g ai/ha) | Plant response rating, Morningglory [12, 18] | Plant response rating, Morningglory [12, 19] | Plant response rating, Morningglory [12, 20] | Plant response rating, Morningglory [12, 21] | Plant response rating, Crabgrass [13, 18] | Plant response rating, Crabgrass [13, 20] | Plant response rating, Foxtail, Giant [14, 18] | Plant response rating, Foxtail, Giant [14, 20] | Plant response rating, Foxtail, Giant [14, 21] | Plant response rating, Velvetleaf [15, 20] | Plant response rating, Pigweed [16, 20] | Plant response rating, Pigweed [16, 21] | Plant response rating, Barnyardgrass [17, 18] | Plant response rating, Barnyardgrass [17, 20] | Plant response rating, Barnyardgrass [17, 21]
10: Plant response rating, Crabgrass [13, 19]
60: Sedge, Umbrella plant response rating ([8]; 32 g ai/ha) | Sedge, Umbrella plant response rating ([8]; 64 g ai/ha) | Sedge, Umbrella plant response rating ([8]; 125 g ai/ha) | Sedge, Umbrella plant response rating ([8]; 250 g ai/ha) | Plant response rating, Sedge, Umbrella ([8]; 16 g ai/ha)
35: Plant response rating, Velvetleaf [15, 18]
80: Flatsedge, Rice plant response rating ([9]; 32 g ai/ha) | Plant response rating, Flatsedge, Rice ([9]; 16 g ai/ha)
15: Plant response rating, Crabgrass [13, 21] | Plant response rating, Foxtail, Giant [14, 19] | Plant response rating, Pigweed [16, 19]
